From patent US8765727B2, “Macrocyclic compounds and their use as kinase inhibitors” (Incyte Corporation, priority 2009, dated 2014) come the findings set out here.

Where a name gives a salt, the structure may show the parent alone. Some results are limits rather than exact numbers.

Format in all cases: biochemical
Assay [1] has as its target human JAK1 (a.a. 837-1142) catalytic domain (Homo sapiens, UniProt P23458). The assay is described as follows: In vitro JAK kinase assay (HTRF), JAK1. The note with it: 90 μM ATP, 500 nM peptide, room temperature 1 hr. Here is the method:
(§1) One or more compounds herein were tested for inhibitory activity of JAK targets according to the following in vitro assay described in Park et al., Analytical Biochemistry 1999, 269, 94-104. The catalytic domains of human JAK1 (a.a. 837-1142), JAK2 (a.a. 828-1132) and JAK3 (a.a. 781-1124) with an N-terminal His tag were expressed using baculovirus in insect cells and purified. The catalytic activity of JAK1, JAK2 or JAK3 was assayed by measuring the phosphorylation of a biotinylated peptide. The phosphorylated peptide was detected by homogenous time resolved fluorescence (HTRF). […] The ATP concentration in the reactions was 90 μM for JAK1, 30 μM for JAK2 and 3 μM for JAK3. Reactions were carried out at room temperature for 1 hr and then stopped with 20 μL 45 mM EDTA, 300 nM SA-APC, 6 nM Eu-Py20 in assay buffer (Perkin Elmer, Boston, Mass.). Binding to the Europium labeled antibody took place for 40 minutes and HTRF signal was measured on a Fusion plate reader (Perkin Elmer, Boston, Mass.).
(In TR-FRET formats the signal depends on donor and acceptor labels being close together.)

Assay [2] deals with human JAK2 (a.a. 828-1132) catalytic domain (Homo sapiens (Human), UniProt O60674). The assay is described as follows: In vitro JAK kinase assay (HTRF), JAK2. The note with it: 30 μM ATP, 500 nM peptide, room temperature 1 hr. Here is the method:
One or more compounds herein were tested for inhibitory activity of JAK targets according to the following in vitro assay described in Park et al., Analytical Biochemistry 1999, 269, 94-104. The catalytic domains of human JAK1 (a.a. 837-1142), JAK2 (a.a. 828-1132) and JAK3 (a.a. 781-1124) with an N-terminal His tag were expressed using baculovirus in insect cells and purified. The catalytic activity of JAK1, JAK2 or JAK3 was assayed by measuring the phosphorylation of a biotinylated peptide. The phosphorylated peptide was detected by homogenous time resolved fluorescence (HTRF). […] Binding to the Europium labeled antibody took place for 40 minutes and HTRF signal was measured on a Fusion plate reader (Perkin Elmer, Boston, Mass.).

In assay [3] the target is human JAK3 (a.a. 781-1124) catalytic domain (Homo sapiens (Human), UniProt P52333). Nature of the assay: In vitro JAK kinase assay (HTRF), JAK3. The note with it: 3 μM ATP, 500 nM peptide, room temperature 1 hr. How it is done: as §1
Another assay deals with TYK2 (Homo sapiens (Human), UniProt P29597). The assay is described as follows: TYK2 assay (as described by Thompson et al.). The source says:
The invention will be described in greater detail by way of specific examples. The following examples are offered for illustrative purposes, and are not intended to limit the invention in any manner. Those of skill in the art will readily recognize a variety of non-critical parameters which can be changed or modified to yield essentially the same results. In some instances where the compounds of the examples were isolated by preparative HPLC in the presence of trifluoroacetic acid (TFA) or other acid, the compound may have been obtained as the corresponding salt. […] Certain compounds described in Tables 1 and in the Example section were tested for inhibitory activity of JAK/ALK targets according to assays such as those described herein or those known in the art [e.g., ALK assays described in WO 04/079326; and TYK2 assays described by James E. Thompson et. al, “Photochemical preparation of a pyridone containing tetracycle: A JAK protein kinase inhibitor,” Bioorganic & Medicinal Chemistry Letters, Volume 12, Issue 8, 22 Apr. 2002, Pages 1219-1223]. […] Some exemplary data of the compounds of the invention are shown in Table 1 in the experimental section.

Assay [4] addresses Recombinant Human Anaplastic Lymphoma Kinase (Homo sapiens (Human), UniProt Q9UM73). The assay is described as follows: ALK HTRF kinase assay. The note with it: 90 μM ATP, 0.25 nM enzyme, 2 hours at 25° C. Here is the method: Materials: Recombinant Human Anaplastic Lymphoma Kinase was purchased from Invitrogen, Carlsbad, Calif. Peptide substrate (Biotin-[…]-amide) was custom synthesized at EZBiolab, Westfield, Ind. Streptavidin conjugated SureLight-Allophycocyania and LANCE Eu-W1024 labeled anti-phosphotyrosine antibody were from Perkin-Elmer, Boston, Mass. Microplates were from Corning Inc., Acton, Mass. All other reagents were from Sigma, St. Louis, Mo.
HTRF kinase assay: 40 μL reactions were run in black 384 well polystyrene plates in assay buffer (50 mM Tris, pH 7.8, 100 mM NaCI, 0.1 mg/mL BSA, 5 mM DTT), containing 0.5 μM Biotinylated peptide substrate, 10 mM MgCl2, 90 μM ATP, and 0.25 nM enzyme for 2 hours at 25° C. Reactions were stopped by addition of 20 μL assay buffer supplemented with an additional 50 mM NaCl, 0.4 mg/mL BSA, 45 mM EDTA, 4.5 nM LANCE Eu-W1024 labeled anti-phosphotyrosine antibody and 200 nM streptavidin conjugated SureLight-allophycocyanin. Plates were read in Fusion α-FP instrument (Perkin-Elmer). The concentrations needed to reach 50% inhibition, the IC50 value, were determined by fitting the assay signal to the following equation using Graphpad Prizm. Signal=Bottom+(Top−Bottom)/(1+10^((Log(IC50)−Log [I])*Hill Slope) Bottom and Top refer to the post and pre-transition baselines, respectively.

Recombinant Human Anaplastic Lymphoma Kinase, sequence (Q9UM73 19-1620): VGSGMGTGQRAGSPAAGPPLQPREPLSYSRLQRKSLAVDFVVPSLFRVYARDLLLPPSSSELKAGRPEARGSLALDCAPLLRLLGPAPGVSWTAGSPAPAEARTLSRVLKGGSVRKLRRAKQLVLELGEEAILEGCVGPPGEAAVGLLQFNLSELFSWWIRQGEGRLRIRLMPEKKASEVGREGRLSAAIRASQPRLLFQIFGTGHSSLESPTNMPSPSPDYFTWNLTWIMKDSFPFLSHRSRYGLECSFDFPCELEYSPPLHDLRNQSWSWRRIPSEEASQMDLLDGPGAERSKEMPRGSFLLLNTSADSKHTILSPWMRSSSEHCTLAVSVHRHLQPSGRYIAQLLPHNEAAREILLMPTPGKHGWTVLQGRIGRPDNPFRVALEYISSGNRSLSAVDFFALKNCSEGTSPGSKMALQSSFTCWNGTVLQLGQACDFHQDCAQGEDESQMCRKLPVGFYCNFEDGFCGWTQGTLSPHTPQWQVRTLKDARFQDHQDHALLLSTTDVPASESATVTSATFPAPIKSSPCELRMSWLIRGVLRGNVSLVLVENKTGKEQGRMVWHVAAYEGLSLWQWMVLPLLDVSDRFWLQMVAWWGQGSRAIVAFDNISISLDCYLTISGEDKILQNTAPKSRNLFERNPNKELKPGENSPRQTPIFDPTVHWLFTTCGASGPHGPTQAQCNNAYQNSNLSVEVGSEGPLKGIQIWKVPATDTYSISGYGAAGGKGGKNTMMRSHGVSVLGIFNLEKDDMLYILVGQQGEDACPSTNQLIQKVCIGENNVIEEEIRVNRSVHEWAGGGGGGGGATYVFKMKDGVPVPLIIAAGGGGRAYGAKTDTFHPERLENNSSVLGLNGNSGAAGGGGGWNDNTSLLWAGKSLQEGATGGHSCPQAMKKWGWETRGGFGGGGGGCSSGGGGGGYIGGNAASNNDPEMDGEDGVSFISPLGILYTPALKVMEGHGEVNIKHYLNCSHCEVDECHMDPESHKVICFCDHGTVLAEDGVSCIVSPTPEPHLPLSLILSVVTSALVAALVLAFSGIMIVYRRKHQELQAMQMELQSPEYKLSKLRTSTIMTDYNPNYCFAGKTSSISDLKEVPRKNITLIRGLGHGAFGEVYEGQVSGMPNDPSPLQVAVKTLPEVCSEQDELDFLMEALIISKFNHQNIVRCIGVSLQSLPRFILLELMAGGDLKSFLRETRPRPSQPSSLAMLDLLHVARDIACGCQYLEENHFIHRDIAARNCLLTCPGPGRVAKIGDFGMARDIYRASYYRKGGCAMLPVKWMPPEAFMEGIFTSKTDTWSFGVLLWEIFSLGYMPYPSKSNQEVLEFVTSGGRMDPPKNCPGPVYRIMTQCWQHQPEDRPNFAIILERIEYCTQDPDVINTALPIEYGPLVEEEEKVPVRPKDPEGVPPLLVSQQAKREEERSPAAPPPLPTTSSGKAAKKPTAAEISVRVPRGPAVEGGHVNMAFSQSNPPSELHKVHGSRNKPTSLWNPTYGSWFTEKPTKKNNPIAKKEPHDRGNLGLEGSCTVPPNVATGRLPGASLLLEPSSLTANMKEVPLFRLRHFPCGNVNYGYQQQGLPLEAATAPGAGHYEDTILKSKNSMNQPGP
human JAK3 (a.a. 781-1124) catalytic domain, sequence (P52333 781-1124): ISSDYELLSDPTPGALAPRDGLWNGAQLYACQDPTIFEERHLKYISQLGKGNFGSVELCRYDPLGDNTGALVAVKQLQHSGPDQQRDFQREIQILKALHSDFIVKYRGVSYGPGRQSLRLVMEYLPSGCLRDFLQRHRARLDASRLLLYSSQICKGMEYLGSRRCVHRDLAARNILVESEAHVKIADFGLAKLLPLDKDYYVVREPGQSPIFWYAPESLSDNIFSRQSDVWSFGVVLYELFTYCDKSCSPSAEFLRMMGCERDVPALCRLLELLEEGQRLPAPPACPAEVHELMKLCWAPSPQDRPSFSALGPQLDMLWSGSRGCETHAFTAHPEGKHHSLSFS
human JAK2 (a.a. 828-1132) catalytic domain, sequence (O60674 828-1132): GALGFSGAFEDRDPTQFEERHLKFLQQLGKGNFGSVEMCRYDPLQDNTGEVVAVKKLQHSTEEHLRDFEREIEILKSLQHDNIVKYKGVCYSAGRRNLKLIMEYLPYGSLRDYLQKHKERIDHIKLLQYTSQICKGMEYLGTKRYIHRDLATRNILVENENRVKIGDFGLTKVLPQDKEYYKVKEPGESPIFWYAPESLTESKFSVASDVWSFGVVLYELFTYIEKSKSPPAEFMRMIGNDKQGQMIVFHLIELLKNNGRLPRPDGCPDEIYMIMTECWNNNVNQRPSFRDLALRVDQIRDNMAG
TYK2, sequence (P29597 whole entry, species assumed): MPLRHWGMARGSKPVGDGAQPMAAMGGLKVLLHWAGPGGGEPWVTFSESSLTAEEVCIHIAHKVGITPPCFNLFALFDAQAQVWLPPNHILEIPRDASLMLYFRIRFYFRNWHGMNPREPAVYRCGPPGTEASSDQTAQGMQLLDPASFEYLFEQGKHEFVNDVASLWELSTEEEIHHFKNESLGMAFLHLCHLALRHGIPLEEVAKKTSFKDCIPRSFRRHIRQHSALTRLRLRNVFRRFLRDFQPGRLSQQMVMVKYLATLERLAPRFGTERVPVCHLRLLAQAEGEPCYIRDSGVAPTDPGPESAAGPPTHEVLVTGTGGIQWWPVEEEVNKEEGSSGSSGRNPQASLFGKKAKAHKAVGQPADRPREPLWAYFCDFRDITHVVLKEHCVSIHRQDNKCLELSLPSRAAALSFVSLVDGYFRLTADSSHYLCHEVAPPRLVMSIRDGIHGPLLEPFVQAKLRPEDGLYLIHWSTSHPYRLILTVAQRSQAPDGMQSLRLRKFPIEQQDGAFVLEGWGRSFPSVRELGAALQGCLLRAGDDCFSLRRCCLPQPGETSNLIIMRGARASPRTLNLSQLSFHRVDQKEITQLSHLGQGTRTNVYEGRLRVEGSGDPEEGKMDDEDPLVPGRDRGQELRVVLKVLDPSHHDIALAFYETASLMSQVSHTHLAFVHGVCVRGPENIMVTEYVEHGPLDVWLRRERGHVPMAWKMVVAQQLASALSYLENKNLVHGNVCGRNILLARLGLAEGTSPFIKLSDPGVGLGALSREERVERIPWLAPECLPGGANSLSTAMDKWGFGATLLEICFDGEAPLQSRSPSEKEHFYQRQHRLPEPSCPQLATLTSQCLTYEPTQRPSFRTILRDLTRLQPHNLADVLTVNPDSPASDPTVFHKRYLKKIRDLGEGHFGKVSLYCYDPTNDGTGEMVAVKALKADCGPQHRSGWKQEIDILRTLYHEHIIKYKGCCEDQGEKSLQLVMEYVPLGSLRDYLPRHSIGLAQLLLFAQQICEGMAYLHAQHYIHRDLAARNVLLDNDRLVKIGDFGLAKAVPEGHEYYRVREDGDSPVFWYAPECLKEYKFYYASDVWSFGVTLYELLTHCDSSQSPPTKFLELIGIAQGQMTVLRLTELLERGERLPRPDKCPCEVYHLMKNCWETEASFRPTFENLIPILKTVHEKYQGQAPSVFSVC

A word on the IC50: it is the concentration that gives 50% inhibition. As for `Clc1cnc2nc1NCc1cc(ccc1-c1ccccc1)OCCCc1cccc(c1)N2` [Example 15, 6-Chloro-11-phenyl-15-oxa-2,4,8,25-tetraazatetracyclo[17.3.1.1(3,7).1(10,14)]pentacosa-1(23),3(25),4,6,10(24),11,13,19,21-nonaene], the IC50 is 81 nM in assay [1]; 41 nM in assay [2]; 31 nM in assay [3]; 400 nM against TYK2; greater than 1000 nM in assay [4].
`Clc1cnc2nc1NCCc1cccc(c1)OCc1cccc(c1)N2` [Example 8, 19-Chloro-9-oxa-2,17,21,22-tetraazatetracyclo[16.3.1.1(3,7).1(10,14)]tetracosa-1(22),3(24),4,6,10(23),11,13,18,20-nonaene]: the IC50 is 600 nM in assay [1], 300 nM in assay [3], 438 nM on TYK2 and greater than 10000 nM in assay [4].
For `Clc1cnc2nc1NCCc1cccc(c1)OCCCc1cccc(c1)N2` [Example 12, 6-Chloro-16-oxa-2,4,8,26-tetraazatetracyclo[18.3.1.1(3,7).1(11,15)]hexacosa-1(24),3(26),4,6,11(25),12,14,20,22-nonaene] the same measures were 300 nM, 315 nM, 400 nM and greater than 10000 nM.
Turning to `O=C1Nc2cccc(c2)CNc2nc(ncc2Cl)Nc2cccc1c2` [Example 4, 6-Chloro-2,4,8,15,23-pentaazatetracyclo[15.3.1.1(3,7).1(10,14)]tricosa-1(21),3(23),4,6,10(22),11,13,17,19-nonaen-16-one trifluoroacetate], the IC50 in assay [1] is 96 nM; in assay [2], 104 nM; in assay [3], 21 nM; on TYK2 it was greater than 1000 nM; in assay [4], greater than 10000 nM.
For `O=C(Nc1ccc2cc1CCc1cncc(c1)Nc1ncc(Cl)c(n1)NC2)c1ccccc1` [Example 18, N-[6-Chloro-2,4,8,19,23-pentaazatetracyclo[15.3.1.1(3,7).1(10,14)]tricosa-1(21),3(23),4,6,10(22),11,13,17,19-nonaen-13-yl]benzamide bis(trifluoroacetate)] the same measures were greater than 1000 nM, greater than 1000 nM, greater than 1000 nM, greater than 1000 nM and greater than 1000 nM.
Taken in the same sequence, the figures for `C[C@@H]1Nc2nc(ncc2Cl)Nc2cccc(c2)COc2cccc1c2` [Example 11, (9S)-6-Chloro-9-methyl-15-oxa-2,4,8,23-tetraazatetracyclo[15.3.1.1(3,7).1(10,14)]tricosa-1(21),3(23),4,6,10(22),11,13,17,19-nonaene trifluoroacetate] were greater than 1000 nM, greater than 1000 nM, greater than 1000 nM, greater than 1000 nM and greater than 10000 nM.
For `Clc1cnc2nc1NCc1cc(Br)cc(c1)OCCCc1cccc(c1)N2` [Example 16, 12-Bromo-6-chloro-15-oxa-2,4,8,25-tetraazatetracyclo[17.3.1.1(3,7).1(10,14)]pentacosa-1(23),3(25),4,6,10(24),11,13,19,21-nonaene], the half-inhibitory concentration (IC50) amounted to 5 nM in assay [2], 149 nM against TYK2 and 280 nM in assay [4].
On to `Clc1cnc2nc1NCCCc1cccc(c1)OCc1cccc(c1)N2` [Example 10, 20-Chloro-9-oxa-2,18,22,23-tetraazatetracyclo[17.3.1.1(3,7).1(10,14)]pentacosa-1(23),3(25),4,6,10(24),11,13,19,21-nonaene], for which the IC50 is 122 nM in assay [1]; 117 nM in assay [2]; 180 nM in assay [3]; 237 nM against TYK2; greater than 1000 nM in assay [4].
`O=S1(=O)Nc2cccc(c2)CNc2nc(ncc2Cl)Nc2cccc1c2` [Example 3, 6-Chloro-16-thia-2,4,8,15,23-pentaazatetracyclo[15.3.1.1(3,7).1(10,14)]tricosa-1(21),3(23),4,6,10(22),11,13,17,19-nonaene 16,16-dioxide trifluoroacetate]: the IC50 is 300 nM in assay [1], 325 nM in assay [3], 830 nM at TYK2 and greater than 10000 nM in assay [4].
As to `Clc1cnc2nc1NCc1cccc(c1)OCCOc1cccc(c1)N2` [Example 7, 6-Chloro-15,18-dioxa-2,4,8,25-tetraazatetracyclo[17.3.1.1(3,7).1(10,14)]pentacosa-1(23),3(25),4,6,10(24),11,13,19,21-nonaene trifluoroacetate], the IC50 in assay [1] is 16 nM; in assay [2], 8.3 nM; in assay [3], 6.4 nM; at TYK2, 43 nM; in assay [4], 2050 nM.
Consider `C[C@H]1Nc2nc(ncc2Cl)Nc2cccc(c2)COc2cccc1c2` [Example 6, (9R)-6-Chloro-9-methyl-15-oxa-2,4,8,23-tetraazatetracyclo[15.3.1.1(3,7).1(10,14)]tricosa-1(21),3(23),4,6,10(22),11,13,17,19-nonaene trifluoroacetate], for which the half-inhibitory concentration (IC50) in assay [1] was 346 nM; in assay [2], 350 nM; in assay [3], 140 nM; against TYK2, greater than 1000 nM; in assay [4], greater than 10000 nM.
For `N#Cc1ccccc1S(=O)(=O)Nc1ccc2cc1CCc1cncc(c1)Nc1ncc(Cl)c(n1)NC2` [Example 19, N-[6-Chloro-2,4,8,19,23-pentaazatetracyclo[15.3.1.1(3,7).1(10,14)]tricosa-1(21),3(23),4,6,10(22),11,13,17,19-nonaen-13-yl]-2-cyanobenzenesulfonamide bis(trifluoroacetate)] the same measures were greater than 1000 nM, greater than 1000 nM, greater than 1000 nM, greater than 1000 nM and greater than 1000 nM.
For the compound `Clc1cnc2nc1NCCc1cccc(c1)OCCc1cccc(c1)N2` [Example 9, 6-Chloro-16-oxa-2,4,8,25-tetraazatetracyclo[17.3.1.1(3,7).1(11,15)]pentacosa-1(23),3(25),4,6,11(24),12,14,19,21-nonaene], the half-maximal inhibitory concentration (IC50) amounted to 28 nM in assay [1]; 23 nM in assay [2]; 55 nM in assay [3]; 53 nM on TYK2; 1230 nM in assay [4].
For `Clc1cnc2nc1NCc1cc(ccc1Br)OCCCc1cccc(c1)N2` [Example 14, 11-Bromo-6-chloro-15-oxa-2,4,8,25-tetraazatetracyclo[17.3.1.1(3,7).1(10,14)]pentacosa-1(23),3(25),4,6,10(24),11,13,19,21-nonaene] the same measures were 100 nM, 91 nM, 57 nM, 300 nM and 8200 nM.
